Results published in PubChem BioAssay (NCI).
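Interpolation was linear, between the two tested concentrations surrounding the appropriate level; five concentrations were tested over 48 hours in 96-well plates. GI50 marks 50% less growth. TGI: total growth inhibition.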 *1 amine or outer side, *2 acyl side, *3 side chain or, on linkers, in order; H or OH if unused. Where a SMILES comes first, the peptide text is derived from it. Bridges are numbered along the chain shown (N, C = ends). [ ]: non-standard residue; d: D form. Adda = CO[C@@H](Cc1ccccc1)[C@@H](C)/C=C(C)/C=C/[C@H](N[*:1])[C@H](C)C(=O)[*:2]; dAsp(3S-Me) = C[C@H](C(=O)[*:3])[C@@H](N[*:1])C(=O)[*:2]; d(γGlu) = O=C(O)[C@@H](CCC(=O)[*:2])N[*:1]; NMeDha = C=C(NC)C(=O)O

How the values were obtained:
Test in all cases: growth of human tumour cells (NCI), 48 h
786-0 renal = tested on: 786-0 renal
A549 NSCLC = tested on: A549 NSCLC
ACHN renal = tested on: ACHN renal
BT-549 breast = tested on: BT-549 breast
CAKI-1 renal = tested on: CAKI-1 renal
CCRF-CEM leukemia = tested on: CCRF-CEM leukemia
COLO 205 colon = tested on: COLO 205 colon
DU-145 prostate = tested on: DU-145 prostate
EKVX NSCLC = tested on: EKVX NSCLC
HCC-2998 colon = tested on: HCC-2998 colon
HCT-116 colon = tested on: HCT-116 colon
HCT-15 colon = tested on: HCT-15 colon
HL-60(TB) leukemia = tested on: HL-60(TB) leukemia
HOP-62 NSCLC = tested on: HOP-62 NSCLC
HOP-92 NSCLC = tested on: HOP-92 NSCLC
HS 578T breast = tested on: HS 578T breast
HT29 colon = tested on: HT29 colon
IGROV1 ovarian = tested on: IGROV1 ovarian
K-562 leukemia = tested on: K-562 leukemia
KM12 colon = tested on: KM12 colon
LOX IMVI melanoma = tested on: LOX IMVI melanoma
M14 melanoma = tested on: M14 melanoma
MALME-3M melanoma = tested on: MALME-3M melanoma
MCF7 breast = tested on: MCF7 breast
MDA-MB-231 breast = tested on: MDA-MB-231 breast
MDA-MB-435 = tested on: MDA-MB-435
MOLT-4 leukemia = tested on: MOLT-4 leukemia
NCI-H226 lung = tested on: NCI-H226 lung
NCI-H460 lung = tested on: NCI-H460 lung
NCI-H522 lung = tested on: NCI-H522 lung
NCI/ADR-RES ovarian = tested on: NCI/ADR-RES ovarian
OVCAR-4 ovarian = tested on: OVCAR-4 ovarian
OVCAR-5 ovarian = tested on: OVCAR-5 ovarian
OVCAR-8 ovarian = tested on: OVCAR-8 ovarian
PC-3 prostate = tested on: PC-3 prostate
RPMI-8226 leukemia = tested on: RPMI-8226 leukemia
RXF 393 renal = tested on: RXF 393 renal
SF-268 CNS = tested on: SF-268 CNS
SF-295 CNS = tested on: SF-295 CNS
SF-539 CNS = tested on: SF-539 CNS
SK-MEL-2 melanoma = tested on: SK-MEL-2 melanoma
SK-MEL-28 melanoma = tested on: SK-MEL-28 melanoma
SK-MEL-5 melanoma = tested on: SK-MEL-5 melanoma
SK-OV-3 ovarian = tested on: SK-OV-3 ovarian
SN12C renal = tested on: SN12C renal
SNB-19 CNS = tested on: SNB-19 CNS
SNB-75 CNS = tested on: SNB-75 CNS
SR leukemia = tested on: SR leukemia
SW-620 colon = tested on: SW-620 colon
T-47D breast = tested on: T-47D breast
TK-10 renal = tested on: TK-10 renal
U251 CNS = tested on: U251 CNS
UACC-257 melanoma = tested on: UACC-257 melanoma
UACC-62 melanoma = tested on: UACC-62 melanoma
UO-31 renal = tested on: UO-31 renal
A498 renal = tested on: A498 renal
NCI-H23 lung = tested on: NCI-H23 lung
OVCAR-3 ovarian = tested on: OVCAR-3 ovarian

## N#C/C(=C\c1ccccc1)c1nc(-c2cc3ccccc3oc2=O)cs1
786-0 renal
  TGI: > 100 µM
A549 NSCLC
  TGI: > 100 µM
ACHN renal
  TGI: > 100 µM
BT-549 breast
  TGI: 77.1 µM
CAKI-1 renal
  TGI: > 100 µM
CCRF-CEM leukemia
  TGI: > 100 µM
COLO 205 colon
  TGI: > 100 µM
DU-145 prostate
  TGI: > 100 µM
EKVX NSCLC
  TGI: > 100 µM
HCC-2998 colon
  TGI: > 100 µM
HCT-116 colon
  TGI: > 100 µM
HCT-15 colon
  TGI: > 100 µM
HL-60(TB) leukemia
  TGI: > 100 µM
HOP-62 NSCLC
  TGI: > 100 µM
HOP-92 NSCLC
  TGI: > 100 µM
HS 578T breast
  TGI: 82.1 µM
HT29 colon
  TGI: > 100 µM
IGROV1 ovarian
  TGI: > 100 µM
K-562 leukemia
  TGI: > 100 µM
KM12 colon
  TGI: > 100 µM
LOX IMVI melanoma
  TGI: > 100 µM
M14 melanoma
  TGI: > 100 µM
MALME-3M melanoma
  TGI: > 100 µM
MCF7 breast
  TGI: > 100 µM
MDA-MB-231 breast
  TGI: > 100 µM
MDA-MB-435
  TGI: > 100 µM
MOLT-4 leukemia
  TGI: > 100 µM
NCI-H226 lung
  TGI: > 100 µM
NCI-H460 lung
  TGI: > 100 µM
NCI-H522 lung
  TGI: > 100 µM
NCI/ADR-RES ovarian
  TGI: > 100 µM
OVCAR-4 ovarian
  TGI: > 100 µM
OVCAR-5 ovarian
  TGI: > 100 µM
OVCAR-8 ovarian
  TGI: > 100 µM
PC-3 prostate
  TGI: > 100 µM
RPMI-8226 leukemia
  TGI: > 100 µM
RXF 393 renal
  TGI: > 100 µM
SF-268 CNS
  TGI: > 100 µM
SF-295 CNS
  TGI: > 100 µM
SF-539 CNS
  TGI: > 100 µM
SK-MEL-2 melanoma
  TGI: > 100 µM
SK-MEL-28 melanoma
  TGI: > 100 µM
SK-MEL-5 melanoma
  TGI: > 100 µM
SK-OV-3 ovarian
  TGI: > 100 µM
SN12C renal
  TGI: > 100 µM
SNB-19 CNS
  TGI: > 100 µM
SNB-75 CNS
  TGI: > 100 µM
SR leukemia
  TGI: > 100 µM
SW-620 colon
  TGI: > 100 µM
T-47D breast
  TGI: > 100 µM
TK-10 renal
  TGI: > 100 µM
U251 CNS
  TGI: > 100 µM
UACC-257 melanoma
  TGI: > 100 µM
UACC-62 melanoma
  TGI: > 100 µM
UO-31 renal
  TGI: > 100 µM

## CN(C)CCC=C1c2ccccc2C=Cc2ccccc21
786-0 renal
  TGI: 30.5 µM
A498 renal
  TGI: 29.4 µM
A549 NSCLC
  TGI: 39.6 µM
ACHN renal
  TGI: 30.9 µM
BT-549 breast
  TGI: 31.8 µM
CAKI-1 renal
  TGI: 35.7 µM
COLO 205 colon
  TGI: 29.3 µM
DU-145 prostate
  TGI: 35.4 µM
EKVX NSCLC
  TGI: 28.7 µM
HCC-2998 colon
  TGI: 18.5 µM
HCT-116 colon
  TGI: 30.7 µM
HCT-15 colon
  TGI: 33.1 µM
HOP-62 NSCLC
  TGI: 33 µM
HOP-92 NSCLC
  TGI: 34.9 µM
HS 578T breast
  TGI: 42.3 µM
HT29 colon
  TGI: 19.2 µM
IGROV1 ovarian
  TGI: 31.5 µM
K-562 leukemia
  TGI: 56 µM
KM12 colon
  TGI: 35.3 µM
LOX IMVI melanoma
  TGI: 31.6 µM
M14 melanoma
  TGI: 32.6 µM
MALME-3M melanoma
  TGI: 31.9 µM
MCF7 breast
  TGI: 29.9 µM
MDA-MB-231 breast
  TGI: 31.5 µM
MDA-MB-435
  TGI: 36.5 µM
MOLT-4 leukemia
  TGI: 42.6 µM
NCI-H23 lung
  TGI: 35.1 µM
NCI-H460 lung
  TGI: 28.9 µM
NCI-H522 lung
  TGI: 37 µM
NCI/ADR-RES ovarian
  TGI: 31.2 µM
OVCAR-3 ovarian
  TGI: 31.1 µM
OVCAR-4 ovarian
  TGI: 68.1 µM
OVCAR-5 ovarian
  TGI: 29.5 µM
OVCAR-8 ovarian
  TGI: 30.5 µM
PC-3 prostate
  TGI: 35 µM
RPMI-8226 leukemia
  TGI: 52.3 µM
RXF 393 renal
  TGI: 34.3 µM
SF-268 CNS
  TGI: 30.9 µM
SF-295 CNS
  TGI: 32.8 µM
SK-MEL-2 melanoma
  TGI: 32.3 µM
SK-MEL-28 melanoma
  TGI: 31.3 µM
SK-MEL-5 melanoma
  TGI: 27.5 µM
SK-OV-3 ovarian
  TGI: 31.4 µM
SN12C renal
  TGI: 32.5 µM
SNB-19 CNS
  TGI: 41.7 µM
SNB-75 CNS
  TGI: 31.1 µM
SR leukemia
  TGI: 42.8 µM
SW-620 colon
  TGI: 38.2 µM
T-47D breast
  TGI: 44.8 µM
TK-10 renal
  TGI: 29.8 µM
U251 CNS
  TGI: 29.8 µM
UACC-257 melanoma
  TGI: 28.3 µM
UACC-62 melanoma
  TGI: 30.3 µM
UO-31 renal
  TGI: 32 µM

## C=C1C(=O)N[C@H](C)C(=O)N[C@@H](CC(C)C)C(=O)N[C@@H](C(=O)O)[C@H](C)C(=O)N[C@@H](CCCN=C(N)N)C(=O)N[C@@H](/C=C/C(C)=C/[C@H](C)[C@H](Cc2ccccc2)OC)[C@H](C)C(=O)N[C@@H](C(=O)O)CCC(=O)N1C (R[Adda][d(γGlu)][NMeDha][dA]L[dAsp(3S-Me)]-OH; lactam N-7)
786-0 renal
  GI50: > 5 µM
  TGI: > 5 µM
A549 NSCLC
  GI50: 4.68 µM
  TGI: > 5 µM
BT-549 breast
  GI50: > 5 µM
  TGI: > 5 µM
CAKI-1 renal
  GI50: > 5 µM
  TGI: > 5 µM
COLO 205 colon
  GI50: > 5 µM
  TGI: > 5 µM
DU-145 prostate
  GI50: > 5 µM
  TGI: > 5 µM
EKVX NSCLC
  GI50: > 5 µM
  TGI: > 5 µM
HCC-2998 colon
  GI50: > 5 µM
  TGI: > 5 µM
HCT-116 colon
  GI50: > 5 µM
  TGI: > 5 µM
HCT-15 colon
  GI50: > 5 µM
  TGI: > 5 µM
HL-60(TB) leukemia
  GI50: > 5 µM
  TGI: > 5 µM
HOP-62 NSCLC
  GI50: > 5 µM
  TGI: > 5 µM
HOP-92 NSCLC
  GI50: > 5 µM
  TGI: > 5 µM
HS 578T breast
  GI50: > 5 µM
  TGI: > 5 µM
HT29 colon
  GI50: > 5 µM
  TGI: > 5 µM
IGROV1 ovarian
  GI50: 0.305 µM
  TGI: > 5 µM
K-562 leukemia
  GI50: > 5 µM
  TGI: > 5 µM
KM12 colon
  GI50: > 5 µM
  TGI: > 5 µM
LOX IMVI melanoma
  GI50: > 5 µM
  TGI: > 5 µM
M14 melanoma
  GI50: > 5 µM
  TGI: > 5 µM
MCF7 breast
  GI50: > 5 µM
  TGI: > 5 µM
MDA-MB-231 breast
  GI50: > 5 µM
  TGI: > 5 µM
MDA-MB-435
  GI50: > 5 µM
  TGI: > 5 µM
MOLT-4 leukemia
  GI50: > 5 µM
  TGI: > 5 µM
NCI-H226 lung
  GI50: > 5 µM
  TGI: > 5 µM
NCI-H23 lung
  GI50: > 5 µM
  TGI: > 5 µM
NCI-H460 lung
  GI50: > 5 µM
  TGI: > 5 µM
NCI-H522 lung
  GI50: 4.94 µM
  TGI: > 5 µM
NCI/ADR-RES ovarian
  GI50: > 5 µM
  TGI: > 5 µM
OVCAR-3 ovarian
  GI50: > 5 µM
  TGI: > 5 µM
OVCAR-4 ovarian
  GI50: > 5 µM
  TGI: > 5 µM
OVCAR-5 ovarian
  GI50: > 5 µM
  TGI: > 5 µM
OVCAR-8 ovarian
  GI50: > 5 µM
  TGI: > 5 µM
PC-3 prostate
  GI50: > 5 µM
  TGI: > 5 µM
RPMI-8226 leukemia
  GI50: > 5 µM
  TGI: > 5 µM
RXF 393 renal
  GI50: > 5 µM
  TGI: > 5 µM
SF-268 CNS
  GI50: > 5 µM
  TGI: > 5 µM
SF-295 CNS
  GI50: > 5 µM
  TGI: > 5 µM
SF-539 CNS
  GI50: > 5 µM
  TGI: > 5 µM
SK-MEL-2 melanoma
  GI50: > 5 µM
  TGI: > 5 µM
SK-MEL-28 melanoma
  GI50: > 5 µM
  TGI: > 5 µM
SK-MEL-5 melanoma
  GI50: > 5 µM
  TGI: > 5 µM
SK-OV-3 ovarian
  GI50: > 5 µM
  TGI: > 5 µM
SN12C renal
  GI50: > 5 µM
  TGI: > 5 µM
SNB-19 CNS
  GI50: > 5 µM
  TGI: > 5 µM
SNB-75 CNS
  GI50: > 5 µM
  TGI: > 5 µM
SR leukemia
  GI50: 1.19 µM
  TGI: > 5 µM
SW-620 colon
  GI50: > 5 µM
  TGI: > 5 µM
T-47D breast
  GI50: > 5 µM
  TGI: > 5 µM
TK-10 renal
  GI50: > 5 µM
  TGI: > 5 µM
UACC-257 melanoma
  GI50: > 5 µM
  TGI: > 5 µM
UACC-62 melanoma
  GI50: > 5 µM
  TGI: > 5 µM
UO-31 renal
  GI50: > 5 µM
  TGI: > 5 µM
